Assay results published in patent publication US9200006B2, “Protease inhibitors” (MEDIVIR AB, priority 2008, dated 2015).

Legend:
[1] = In vivo mouse PK, oral administration (FIG. 1); design: species or system male C57Bl mice; details: orally administered, 60 μmol/kg in 1% Methocel A4C vehicle
Text: Various embodiments of the invention will now be described by way of illustration only with reference to the following Examples and FIG. 1 which depicts plasma concentration against time for male C57Bl mice orally administered a compound of the invention or a compound of the prior art.

[2] = reference markers for the permeability assay; cited from earlier work
[3] = Metabolic stability in whole blood; format: in vitro ADME; details: worked out from whole blood CLint
Experimental: Compounds of the invention and the indicated comparative examples were tested for metabolic stability in a cytosol assay in which the compounds were incubated with commercially available human hepatic cytosol fractions and the disappearance of the compound monitored by HPLC or LC/MS. Pooled human liver cytosol fractions are less likely to represent outlier individuals than blood from a single individual and can be stored frozen, unlike whole blood. The cytosol assay thus provides a consistent assay testbed as a guide to the stability of a compound in the in vivo environment, such as when exposed to whole blood.
In short, test compounds (2 μM) are incubated in pooled human liver cytosol (Xenotech LLC Lenexa US, 1 mg/mL protein in 0.1 M phosphate buffer, pH 7.4) at 37° centigrade over a one hour period. The incubations are initiated by the addition of 1 mM NADPH co-factor. Timed sub-samples were taken at 0, 20, 40 and 60 minutes and “crash precipitated” by the addition of 3 volumes of ice-cold acetonitrile. The samples were centrifuged at reduced temperature and the supernatants were separated and analyzed by LC-MS-MS.
Alternatively, an analogous stability assay is carried out in human or monkey whole blood and/or commercially available liver microsomes, such as XEN 025.

| SMILES | % absorption in man [2] [%] | further results |
| --- | --- | --- |
| C#C[C@@H]1CN(C(=O)[C@H](CC(C)C)NC(=O)c2ccc(-c3nc(N4CCN(C)CC4)sc3F)cc2)[C@@H]2C(=O)CO[C@H]12 [Example 2, N-[1-6-(ethynyl-3-oxo-hexahydro-furo[3,2-b]pyrrole-4-carbonyl)-3-methyl-butyl]-4-[5-fluoro-2-(4-methyl-piperazin-1-yl)thiazol-4-yl]-benzamide] | – | in vivo exposure (Cmax or AUC) compared with the prior art compound [1]: very much greater |
| N[C@@H](Cc1ccccc1)C(=O)O [L-Phenylalanine] | 100 | – |
| OC[C@@H](O)[C@@H](O)[C@H](O)[C@H](O)CO [Mannitol] | 16 | – |
| CN(Cc1cnc2nc(N)nc(N)c2n1)c1ccc(C(=O)N[C@@H](CCC(=O)O)C(=O)O)cc1 [Methotrexate] | 20 | – |
| CC(C)C[C@H](NC(=O)c1ccc(-c2csc(N3CCN(C)CC3)n2)cc1)C(=O)N1C[C@@H](C)[C@H]2OCC(=O)[C@H]21 [comparative example] | – | estimated / calculated whole blood half life [3]: little over an hour |
